Measurements: BindingDB's records for doi:10.1021/jm00024a005 (National Institute of Diabetes and Digestive and Kidney …, 1996)
Several values for one entry are separate records, joined by “and”; a condition that tells them apart may be missing. Equal values may be shown once.

Test: Ability to inhibit [3H](+)-pentazocine binding to guinea pig brain Sigma receptor type 1

CN1CCC2(c3cccc(O)c3)CC(=O)C(=CC3CC3)C1C2 (stereo not given) [8-[1-Cyclopropyl-meth-(E)-ylidene]-5-(3-hydroxy-phenyl)-2-methyl-2-aza-bicyclo[3.3.1]nonan-7-one]
Ki: 62.3 nM

COc1ccc(C=C2C(=O)CC3(c4cccc(O)c4)CCN(C)C2C3)cc1 (stereo not given) [5-(3-Hydroxy-phenyl)-8-[1-(4-methoxy-phenyl)-meth-(E)-ylidene]-2-methyl-2-aza-bicyclo[3.3.1]nonan-7-one]
Ki: 1.9 nM and 7.8 nM

CN1CCC2(c3cccc(O)c3)CC(=O)C(=Cc3ccc4ccccc4c3)C1C2 (stereo not given) [5-(3-Hydroxy-phenyl)-2-methyl-8-[1-naphthalen-2-yl-meth-(E)-ylidene]-2-aza-bicyclo[3.3.1]nonan-7-one]
Ki: 16.6 nM

CN1CCC2(c3cccc(O)c3)CC(=O)C(=Cc3cccc(I)c3)C1C2 (stereo not given) [5-(3-Hydroxy-phenyl)-8-[1-(3-iodo-phenyl)-meth-(E)-ylidene]-2-methyl-2-aza-bicyclo[3.3.1]nonan-7-one]
Ki: 1.62 nM

CN1CCC2(c3cccc(O)c3)CC(=O)C(=Cc3ccc(I)cc3)C1C2 (stereo not given) [5-(3-Hydroxy-phenyl)-8-[1-(4-iodo-phenyl)-meth-(E)-ylidene]-2-methyl-2-aza-bicyclo[3.3.1]nonan-7-one]
Ki: 1.71 nM
